{"source": "patent US20080139604A1", "about": "“Method of Treating Atherosclerosis, Dyslipidemias and Related Conditions” (priority 2005, published 2008)", "system": "DP-independent nicotinic acid induced vasodilation", "experiment": "nicotinic acid induced vasodilation in mice genetically devoid of the DP receptor", "assay_type": "in vivo, mouse", "settings": "mice genetically devoid of the DP receptor (DP1), administration or pre-administration", "procedure": "Thus, some portion of nicotinic acid induced vasodilation may not be dependent on the DP receptor. This DP-independent vasodilation can be inhibited by the administration or pre-administration of aspirin, a COX-1/COX-II inhibitor, to the mice. Human doses range from about 20-25 mg to as high as about 650 mg, administered about one hour to about 30 minutes before the administration of nicotinic acid, up to simultaneous administration, and repeated as necessary up to about every four hours. Thus a combination of DP receptor antagonist and aspirin is particularly effective to suppress nicotinic acid induced flushing in humans, attenuating some or all of the flushing that is not suppressed by the […] or by aspirin alone.", "data": [{"compound": "CC(=O)Oc1ccccc1C(=O)O", "note": "[aspirin]", "values": [{"measurement": "inhibition of DP-independent nicotinic acid induced vasodilation", "result": "inhibited"}]}]}
